# Species: Rattus norvegicus
# Test: DrugMatrix - Regimen: Daily Repeat
# Type: toxicity, organism-based, Sprague-Dawley
# Set-up: regimen Daily Repeat, gender Male, age 6-8 weeks
# Conditions: in vivo, iv, 120 mg/kg, dose level High, vehicle 100 % SALINE; for ABSOLUTE BASOPHIL / ABSOLUTE EOSINOPHIL / ABSOLUTE LYMPHOCYTE / ABSOLUTE MONOCYTE / ABSOLUTE SEGMENTED NEUTROPHIL / BASOPHIL / EOSINOPHIL / ERYTHROCYTE COUNT / HEMATOCRIT / HEMOGLOBIN / LEUKOCYTE COUNT / LYMPHOCYTE / MEAN CORPUSCULAR HEMOGLOBIN / MEAN CORPUSCULAR HEMOGLOBIN CONCENTRATION / MEAN CORPUSCULAR VOLUME / MONOCYTE / NEUTROPHIL / NUCLEATED RED BLOOD CELLS / PLATELET COUNT: tissue Blood; for ALANINE AMINOTRANSFERASE / ALBUMIN / ALKALINE PHOSPHATASE / ASPARTATE AMINOTRANSFERASE / BLOOD UREA NITROGEN / CARBON DIOXIDE / CHLORIDE / CHOLESTEROL / CREATINE PHOSPHOKINASE / CREATININE / GLUCOSE / LACTATE DEHYDROGENASE / LIPASE / PHOSPHORUS / POTASSIUM / SODIUM / TOTAL BILIRUBIN / TOTAL PROTEIN / URIC ACID: tissue Plasma
compound,measurement,setting,value
[H]/N=C(/N)N[C@H]1[C@H](O)[C@@H](O)[C@H](O[C@@H]2O[C@@H](C)[C@](O)(C=O)[C@H]2O[C@@H]2O[C@@H](CO)[C@H](O)[C@@H](O)[C@@H]2NC)[C@@H](N/C(N)=N\[H])[C@@H]1O [STREPTOMYCIN],ABSOLUTE BASOPHIL,"72 h, time 3 day",0 CELLS/uL
same,ABSOLUTE EOSINOPHIL,"72 h, time 3 day",272.33 CELLS/uL
same,ABSOLUTE LYMPHOCYTE,"72 h, time 3 day",11274.33 CELLS/uL
same,ABSOLUTE MONOCYTE,"72 h, time 3 day",397 CELLS/uL
same,ABSOLUTE SEGMENTED NEUTROPHIL,"72 h, time 3 day",1289.67 CELLS/uL
same,BASOPHIL,"72 h, time 3 day",0%
same,EOSINOPHIL,"72 h, time 3 day",2%
same,ERYTHROCYTE COUNT,"72 h, time 3 day",5.88 x10E6/uL
same,HEMATOCRIT,"72 h, time 3 day",36.13%
same,HEMOGLOBIN,"72 h, time 3 day",13.67 G/DL
same,LEUKOCYTE COUNT,"72 h, time 3 day",13.23 x10E3/uL
same,LYMPHOCYTE,"72 h, time 3 day",85.33%
same,MEAN CORPUSCULAR HEMOGLOBIN,"72 h, time 3 day",23.3 pg
same,MEAN CORPUSCULAR HEMOGLOBIN CONCENTRATION,"72 h, time 3 day",37.8 G/DL
same,MEAN CORPUSCULAR VOLUME,"72 h, time 3 day",61.53 fL
same,MONOCYTE,"72 h, time 3 day",3%
same,NEUTROPHIL,"72 h, time 3 day",9.67%
same,NUCLEATED RED BLOOD CELLS,"72 h, time 3 day",0.33 /100WBC
same,PLATELET COUNT,"72 h, time 3 day",1314 x10E3/uL
same,ALANINE AMINOTRANSFERASE,"72 h, time 3 day",43 u/L
same,ALBUMIN,"72 h, time 3 day",4.27 G/DL
same,ALKALINE PHOSPHATASE,"72 h, time 3 day",316.67 u/L
same,ASPARTATE AMINOTRANSFERASE,"72 h, time 3 day",75.67 u/L
same,BLOOD UREA NITROGEN,"72 h, time 3 day",18.33 mg/dL
same,CARBON DIOXIDE,"72 h, time 3 day",24.67 mmol/L
same,CHLORIDE,"72 h, time 3 day",106 MEQ/L
same,CHOLESTEROL,"72 h, time 3 day",86 mg/dL
same,CREATINE PHOSPHOKINASE,"72 h, time 3 day",233.67 u/L
same,CREATININE,"72 h, time 3 day",0.28 mg/dL
same,GLUCOSE,"72 h, time 3 day",150.33 mg/dL
same,LACTATE DEHYDROGENASE,"72 h, time 3 day",355.67 u/L
same,LIPASE,"72 h, time 3 day",9 u/L
same,PHOSPHORUS,"72 h, time 3 day",12.8 mg/dL
same,POTASSIUM,"72 h, time 3 day",6.3 MEQ/L
same,SODIUM,"72 h, time 3 day",147.3 MEQ/L
same,TOTAL BILIRUBIN,"72 h, time 3 day",0.23 mg/dL
same,TOTAL PROTEIN,"72 h, time 3 day",6.03 G/DL
same,URIC ACID,"72 h, time 3 day",1.3 mg/dL
same,ABSOLUTE BASOPHIL,"120 h, time 5 day",0 CELLS/uL
same,ABSOLUTE EOSINOPHIL,"120 h, time 5 day",0 CELLS/uL
same,ABSOLUTE LYMPHOCYTE,"120 h, time 5 day",15247.67 CELLS/uL
same,ABSOLUTE MONOCYTE,"120 h, time 5 day",224.67 CELLS/uL
same,ABSOLUTE SEGMENTED NEUTROPHIL,"120 h, time 5 day",2294.33 CELLS/uL
same,BASOPHIL,"120 h, time 5 day",0%
same,EOSINOPHIL,"120 h, time 5 day",0%
same,ERYTHROCYTE COUNT,"120 h, time 5 day",5.9 x10E6/uL
same,HEMATOCRIT,"120 h, time 5 day",36.63%
same,HEMOGLOBIN,"120 h, time 5 day",13.87 G/DL
same,LEUKOCYTE COUNT,"120 h, time 5 day",17.77 x10E3/uL
same,LYMPHOCYTE,"120 h, time 5 day",85.33%
same,MEAN CORPUSCULAR HEMOGLOBIN,"120 h, time 5 day",23.5 pg
same,MEAN CORPUSCULAR HEMOGLOBIN CONCENTRATION,"120 h, time 5 day",37.83 G/DL
same,MEAN CORPUSCULAR VOLUME,"120 h, time 5 day",62.1 fL
same,MONOCYTE,"120 h, time 5 day",1.33%
same,NEUTROPHIL,"120 h, time 5 day",13.33%
same,NUCLEATED RED BLOOD CELLS,"120 h, time 5 day",0 /100WBC
same,PLATELET COUNT,"120 h, time 5 day",1316.67 x10E3/uL
same,ALANINE AMINOTRANSFERASE,"120 h, time 5 day",42.33 u/L
same,ALBUMIN,"120 h, time 5 day",4.33 G/DL
same,ALKALINE PHOSPHATASE,"120 h, time 5 day",270 u/L
same,ASPARTATE AMINOTRANSFERASE,"120 h, time 5 day",91 u/L
same,BLOOD UREA NITROGEN,"120 h, time 5 day",18.67 mg/dL
same,CARBON DIOXIDE,"120 h, time 5 day",25 mmol/L
same,CHLORIDE,"120 h, time 5 day",104 MEQ/L
same,CHOLESTEROL,"120 h, time 5 day",61 mg/dL
same,CREATINE PHOSPHOKINASE,"120 h, time 5 day",601.67 u/L
same,CREATININE,"120 h, time 5 day",0.19 mg/dL
same,GLUCOSE,"120 h, time 5 day",177.67 mg/dL
same,LACTATE DEHYDROGENASE,"120 h, time 5 day",433 u/L
same,LIPASE,"120 h, time 5 day",8.67 u/L
same,PHOSPHORUS,"120 h, time 5 day",14 mg/dL
same,POTASSIUM,"120 h, time 5 day",6.21 MEQ/L
same,SODIUM,"120 h, time 5 day",147.03 MEQ/L
same,TOTAL BILIRUBIN,"120 h, time 5 day",0.13 mg/dL
same,TOTAL PROTEIN,"120 h, time 5 day",6.3 G/DL
same,URIC ACID,"120 h, time 5 day",1.83 mg/dL
